Assay [1] concerns the target Neuropeptide Y receptor type 1 (Homo sapiens, UniProt P25929). Kind of assay: NPY-Y1 receptor antagonist potency, dose response, cell-based (AID 1277). The class given is functional.
Assay [2] deals with T1, Short transient receptor potential channel 4 (Mus musculus, UniProt Q9QUQ5).
T1 sequence (Q9QUQ5 whole entry): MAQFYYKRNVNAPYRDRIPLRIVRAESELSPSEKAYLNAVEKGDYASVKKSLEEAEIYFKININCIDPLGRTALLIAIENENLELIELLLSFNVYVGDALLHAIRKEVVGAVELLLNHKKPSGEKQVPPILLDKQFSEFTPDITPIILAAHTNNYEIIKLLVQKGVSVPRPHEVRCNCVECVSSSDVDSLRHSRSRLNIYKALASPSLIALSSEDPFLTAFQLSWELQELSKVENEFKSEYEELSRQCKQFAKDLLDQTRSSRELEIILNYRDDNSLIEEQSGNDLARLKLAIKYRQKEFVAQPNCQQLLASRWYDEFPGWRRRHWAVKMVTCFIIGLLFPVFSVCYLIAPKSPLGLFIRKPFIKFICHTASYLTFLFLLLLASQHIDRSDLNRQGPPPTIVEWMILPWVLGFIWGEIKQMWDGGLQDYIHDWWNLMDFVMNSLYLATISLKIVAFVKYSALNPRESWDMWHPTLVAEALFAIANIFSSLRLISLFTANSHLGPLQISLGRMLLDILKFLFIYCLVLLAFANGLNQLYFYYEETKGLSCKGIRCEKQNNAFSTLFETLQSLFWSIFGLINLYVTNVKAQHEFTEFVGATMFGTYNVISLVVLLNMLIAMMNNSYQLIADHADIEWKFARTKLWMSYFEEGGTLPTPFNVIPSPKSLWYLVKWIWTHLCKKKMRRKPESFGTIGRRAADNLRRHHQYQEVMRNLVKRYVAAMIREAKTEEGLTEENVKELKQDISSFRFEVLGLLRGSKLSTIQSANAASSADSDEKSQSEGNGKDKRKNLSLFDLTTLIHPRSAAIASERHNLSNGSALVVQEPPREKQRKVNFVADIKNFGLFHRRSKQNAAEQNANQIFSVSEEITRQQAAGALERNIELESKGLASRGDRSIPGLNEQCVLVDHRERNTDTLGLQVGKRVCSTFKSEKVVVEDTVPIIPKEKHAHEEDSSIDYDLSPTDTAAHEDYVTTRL
The experiment in a line: mouse TRPC4 channel activators, dose response, cell-based, HEK293 TRPC4/mu-opioid, Fluo-4 calcium (AID 434937). The class given is functional.

The nature of a further assay: cells. The class given is functional, cell-based. The settings on record: HEK-CNG.
Assay [3] concerns the target Neuropeptide Y receptor type 2 (Homo sapiens, UniProt P49146). Kind of assay: NPY-Y2 antagonist potency, selectivity check, dose response, counter-screen for NPY-Y1 antagonist project, cell-based (AID 1278). It is filed as functional. (In general: Counterscreens check selectivity or assay interference.)
The next assay addresses Galanin receptor type 3 (Homo sapiens, UniProt O60755). Kind of assay: Fluorescence-based cell-based primary high throughput dose response assay to identify antagonists of the Galanin Receptor 3 (GalR3). The class given is functional.
The target in assay [4] is Lytic switch protein BZLF1 (Epstein-Barr virus (strain B95-8) (HHV-4) (Human herpesvirus 4), UniProt P03206). Kind of assay: EBV ZTA inhibitors, dose response, counter-screen for EBNA-1 inhibitor project, biochemical, fluorescence polarization, Epstein-Barr virus, 1536-well (AID 2377).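 Note: fluorescence polarization of Cy5-labelled ZRE DNA probe bound by purified Zta.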 Also noted: species or system human gammaherpesvirus 4.
The target of assay [5] is Epstein-Barr nuclear antigen 1 (Epstein-Barr virus (strain B95-8) (HHV-4) (Human herpesvirus 4), UniProt P03211). Kind of assay: EBNA-1 inhibitors, dose response, biochemical, fluorescence polarization, 1536-well (AID 2381).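 Note: fluorescence polarization of a Cy5 DNA probe bound by EBNA-1 protein.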 More on the design: species or system human gammaherpesvirus 4. In general terms: In fluorescence polarisation assays a small probe gives low polarisation when free and higher when bound to something large.

The target in assay [6] is Transitional endoplasmic reticulum ATPase (Homo sapiens, UniProt P55072). The experiment in a line: Luminescence dose response biochemical high throughput screening assay for inhibitors of the p97 ATPase: synthesized compounds. [Related pubchem assays: 1481, 1517 ].
The target of assay [7] is Transitional endoplasmic reticulum ATPase (Homo sapiens, UniProt P55072, C522A). The experiment in a line: Luminescence counterscreen assay for p97 inhibitors: dose response biochemical high throughput screening assay to identify inhibitors of the C522A mutant p97 ATPase: synthesized compounds. [Related pubchem assays: 1481, 1517, 1551 ].
For assay [8], the target named is Photoreceptor-specific nuclear receptor (Homo sapiens, UniProt Q9Y5X4). Kind of assay: NR2E3 inverse agonists, dose response, biochemical, TR-FRET (AID 463256). It is filed as functional. In general terms: In TR-FRET formats the signal depends on donor and acceptor labels being close together.
Assay [9] concerns the target Peroxisome proliferator-activated receptor gamma/Nuclear receptor corepressor 2 (Homo sapiens, UniProt P37231+Q9Y618). The experiment in a line: Counterscreen for NR2E3 inverse agonists: TR-FRET-based biochemical high throughput dose response assay to identify inverse agonists of the interaction between peroxisome proliferator-activated receptor gamma (PPARg) and nuclear receptor co-repressor 2 (NCOR2). The class given is functional.

The target in assay [10] is T2, RNA-binding protein pos-1 (Caenorhabditis elegans, UniProt G5EF15).
T2 sequence (G5EF15 whole entry): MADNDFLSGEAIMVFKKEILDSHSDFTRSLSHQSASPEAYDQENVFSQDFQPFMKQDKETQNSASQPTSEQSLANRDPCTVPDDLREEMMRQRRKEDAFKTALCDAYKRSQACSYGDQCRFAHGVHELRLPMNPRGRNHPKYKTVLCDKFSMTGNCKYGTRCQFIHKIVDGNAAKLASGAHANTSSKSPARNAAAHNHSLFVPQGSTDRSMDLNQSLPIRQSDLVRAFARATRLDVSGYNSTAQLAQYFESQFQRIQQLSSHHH
The experiment in a line: inhibitors of POS-1/mex-3 RNA binding, dose response, biochemical, fluorescence polarization (AID 1964).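 Note: purified POS-1 fused to maltose binding protein made in E. coli; potency of compounds blocking POS-1 binding to fluorescent RNA.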

A short description of assay [11]: Escherichia coli growth inhibition, dose response, counter-screen for MEX-5/POS-1 RNA-binding inhibitor project, luminescence, NEB5alpha (AID 1959). It is filed as functional.
The nature of assay [12]: enhancers of respiration in Yfh1-depleted yeast, dose response, Friedreich's ataxia, plus single-dose screen (AID 1465).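 Note: yeast depleted of Yfh1p frataxin homolog grown on glycerol needing respiration; WST-1 tetrazolium dye reduction as measure of cellular dehydrogenase metabolic activity.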 The class given is functional.
Assay [13] has as its target Luciferin 4-monooxygenase (Photinus pyralis, UniProt P08659). The experiment in a line: firefly luciferase enzyme inhibitors, dose response, biochemical, luminescence (AID 1891).
Assay [14] can be described thus: ADAM10 protease inhibitors, dose response, selectivity assay for ADAM17 exosite inhibitor project, biochemical, FRET peptide substrate, recombinant human ADAM10 (AID 743259).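 Note: ADAM10 enzyme cleaving a FRET peptide substrate.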
Assay [15] concerns the target Disintegrin and metalloproteinase domain-containing protein 17 (Homo sapiens, UniProt P78536). Kind of assay: exosite inhibitors of ADAM17, dose response, biochemical (AID 743260).
The nature of assay [16]: Luminescence Cell-Based Dose Confirmation HTS to Identify Inhibitors of Platelet Dense Granule Release. [Related pubchem assays: 1663 (Primary HTS), 1678 (Summary of Project)]. It is filed as functional.

From ChEMBL document CHEMBL1201862, “PubChem BioAssay data set” (2004) come the findings set out here.

Calls of active or inactive are those of the source.

Sequence of Galanin receptor type 3 (O60755 whole entry): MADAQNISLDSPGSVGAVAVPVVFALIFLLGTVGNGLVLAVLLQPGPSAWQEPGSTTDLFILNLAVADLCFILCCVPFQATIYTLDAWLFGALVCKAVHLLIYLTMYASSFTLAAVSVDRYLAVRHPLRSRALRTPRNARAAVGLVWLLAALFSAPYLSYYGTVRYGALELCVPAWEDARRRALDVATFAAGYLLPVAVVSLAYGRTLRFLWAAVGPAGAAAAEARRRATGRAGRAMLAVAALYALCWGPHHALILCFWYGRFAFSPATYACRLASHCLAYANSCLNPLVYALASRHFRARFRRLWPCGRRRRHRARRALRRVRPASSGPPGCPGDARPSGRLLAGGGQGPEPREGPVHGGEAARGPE
Sequence of Luciferin 4-monooxygenase (P08659 whole entry): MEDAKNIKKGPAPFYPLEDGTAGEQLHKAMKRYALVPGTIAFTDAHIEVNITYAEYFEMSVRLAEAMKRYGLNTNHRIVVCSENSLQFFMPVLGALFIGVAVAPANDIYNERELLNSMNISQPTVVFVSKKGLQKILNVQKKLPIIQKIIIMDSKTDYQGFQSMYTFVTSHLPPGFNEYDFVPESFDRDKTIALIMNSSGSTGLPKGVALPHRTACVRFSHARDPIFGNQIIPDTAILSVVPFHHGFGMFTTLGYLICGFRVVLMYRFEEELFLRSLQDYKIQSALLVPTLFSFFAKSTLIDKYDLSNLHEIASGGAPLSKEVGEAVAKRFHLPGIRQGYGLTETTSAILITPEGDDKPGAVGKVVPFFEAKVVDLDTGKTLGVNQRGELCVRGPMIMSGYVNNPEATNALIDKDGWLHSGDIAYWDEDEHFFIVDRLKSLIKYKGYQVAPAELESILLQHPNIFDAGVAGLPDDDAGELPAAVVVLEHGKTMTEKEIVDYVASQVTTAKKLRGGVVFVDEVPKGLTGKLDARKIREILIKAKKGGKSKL
Sequence of Neuropeptide Y receptor type 2 (P49146 whole entry): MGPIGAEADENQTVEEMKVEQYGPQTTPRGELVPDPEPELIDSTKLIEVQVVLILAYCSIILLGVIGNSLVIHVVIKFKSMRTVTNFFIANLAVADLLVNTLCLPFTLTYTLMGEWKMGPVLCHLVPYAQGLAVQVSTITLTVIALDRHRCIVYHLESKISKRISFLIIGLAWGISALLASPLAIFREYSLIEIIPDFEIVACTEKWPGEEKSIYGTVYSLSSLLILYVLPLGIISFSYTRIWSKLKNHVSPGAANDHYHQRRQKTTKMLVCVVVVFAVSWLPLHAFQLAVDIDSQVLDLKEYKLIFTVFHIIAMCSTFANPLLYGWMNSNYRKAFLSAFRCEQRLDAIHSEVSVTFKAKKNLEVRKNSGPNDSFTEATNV
Sequence of Lytic switch protein BZLF1 (P03206 whole entry): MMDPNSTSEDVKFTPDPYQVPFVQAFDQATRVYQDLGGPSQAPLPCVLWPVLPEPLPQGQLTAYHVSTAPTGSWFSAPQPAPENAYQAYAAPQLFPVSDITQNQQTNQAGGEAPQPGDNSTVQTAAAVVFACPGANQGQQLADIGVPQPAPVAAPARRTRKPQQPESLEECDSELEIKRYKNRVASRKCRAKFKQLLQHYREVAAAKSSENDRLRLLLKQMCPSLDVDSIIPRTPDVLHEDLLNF
Sequence of Epstein-Barr nuclear antigen 1 (P03211 whole entry): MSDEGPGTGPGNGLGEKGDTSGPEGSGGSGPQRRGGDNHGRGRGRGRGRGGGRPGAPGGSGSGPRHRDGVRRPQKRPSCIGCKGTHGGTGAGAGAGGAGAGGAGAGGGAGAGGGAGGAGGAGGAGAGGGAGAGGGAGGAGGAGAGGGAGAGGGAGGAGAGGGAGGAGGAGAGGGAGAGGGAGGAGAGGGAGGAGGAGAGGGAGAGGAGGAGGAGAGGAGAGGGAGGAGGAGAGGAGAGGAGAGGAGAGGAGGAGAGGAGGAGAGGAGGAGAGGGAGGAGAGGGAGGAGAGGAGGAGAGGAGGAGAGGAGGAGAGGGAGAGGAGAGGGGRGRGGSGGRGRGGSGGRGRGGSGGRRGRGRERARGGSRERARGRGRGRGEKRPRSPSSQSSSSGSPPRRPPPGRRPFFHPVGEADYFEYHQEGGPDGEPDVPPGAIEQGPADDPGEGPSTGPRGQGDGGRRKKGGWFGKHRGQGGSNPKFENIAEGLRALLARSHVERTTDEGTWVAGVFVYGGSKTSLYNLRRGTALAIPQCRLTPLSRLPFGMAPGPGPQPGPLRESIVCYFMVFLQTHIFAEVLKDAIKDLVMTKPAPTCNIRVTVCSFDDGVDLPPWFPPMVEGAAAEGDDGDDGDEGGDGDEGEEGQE
Sequence of Neuropeptide Y receptor type 1 (P25929 whole entry): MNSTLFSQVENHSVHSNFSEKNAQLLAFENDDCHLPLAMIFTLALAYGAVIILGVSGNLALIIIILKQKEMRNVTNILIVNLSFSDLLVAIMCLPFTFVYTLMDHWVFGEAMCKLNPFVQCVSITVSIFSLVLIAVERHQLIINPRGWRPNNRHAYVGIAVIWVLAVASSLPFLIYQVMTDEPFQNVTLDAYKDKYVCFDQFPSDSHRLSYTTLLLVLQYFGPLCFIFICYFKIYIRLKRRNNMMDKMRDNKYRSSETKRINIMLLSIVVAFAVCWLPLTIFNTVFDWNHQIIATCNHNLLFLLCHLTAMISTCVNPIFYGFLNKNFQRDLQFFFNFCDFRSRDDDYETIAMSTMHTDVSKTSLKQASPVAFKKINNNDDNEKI
Sequence of Photoreceptor-specific nuclear receptor (Q9Y5X4 whole entry): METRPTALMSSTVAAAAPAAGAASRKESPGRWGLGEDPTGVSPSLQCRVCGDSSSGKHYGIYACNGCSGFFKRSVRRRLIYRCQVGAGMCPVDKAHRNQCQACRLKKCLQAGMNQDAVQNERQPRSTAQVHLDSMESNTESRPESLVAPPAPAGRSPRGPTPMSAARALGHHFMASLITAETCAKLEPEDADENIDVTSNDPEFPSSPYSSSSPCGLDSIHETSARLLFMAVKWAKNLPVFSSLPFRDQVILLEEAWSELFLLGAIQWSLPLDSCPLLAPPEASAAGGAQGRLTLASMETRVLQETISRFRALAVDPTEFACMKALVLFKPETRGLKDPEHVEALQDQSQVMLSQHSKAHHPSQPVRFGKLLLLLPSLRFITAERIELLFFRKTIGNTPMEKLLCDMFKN
Sequence of Transitional endoplasmic reticulum ATPase (Homo sapiens, UniProt P55072) (P55072 whole entry): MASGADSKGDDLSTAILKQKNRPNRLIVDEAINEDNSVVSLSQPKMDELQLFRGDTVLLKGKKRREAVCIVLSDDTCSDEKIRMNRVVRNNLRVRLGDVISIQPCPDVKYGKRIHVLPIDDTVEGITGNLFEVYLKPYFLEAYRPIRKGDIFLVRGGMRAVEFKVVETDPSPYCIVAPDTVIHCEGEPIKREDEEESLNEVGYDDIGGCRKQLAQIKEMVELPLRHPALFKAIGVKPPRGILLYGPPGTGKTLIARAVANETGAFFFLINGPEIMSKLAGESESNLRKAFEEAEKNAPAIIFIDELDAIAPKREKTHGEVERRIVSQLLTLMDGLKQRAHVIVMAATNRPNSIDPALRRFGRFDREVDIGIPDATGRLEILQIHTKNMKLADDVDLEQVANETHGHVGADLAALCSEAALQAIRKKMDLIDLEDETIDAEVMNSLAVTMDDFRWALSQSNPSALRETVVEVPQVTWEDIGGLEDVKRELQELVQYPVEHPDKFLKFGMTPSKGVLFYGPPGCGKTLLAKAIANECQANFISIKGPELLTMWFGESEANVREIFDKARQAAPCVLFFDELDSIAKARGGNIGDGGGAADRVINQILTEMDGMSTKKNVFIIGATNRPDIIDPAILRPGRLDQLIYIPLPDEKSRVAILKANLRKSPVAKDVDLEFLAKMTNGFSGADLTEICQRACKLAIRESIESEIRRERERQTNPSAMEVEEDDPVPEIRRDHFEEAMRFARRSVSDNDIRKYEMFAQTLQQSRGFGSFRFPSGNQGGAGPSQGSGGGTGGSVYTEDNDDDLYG
Sequence of Transitional endoplasmic reticulum ATPase (Homo sapiens, UniProt P55072, C522A) (P55072 2-806 C522A limits assumed): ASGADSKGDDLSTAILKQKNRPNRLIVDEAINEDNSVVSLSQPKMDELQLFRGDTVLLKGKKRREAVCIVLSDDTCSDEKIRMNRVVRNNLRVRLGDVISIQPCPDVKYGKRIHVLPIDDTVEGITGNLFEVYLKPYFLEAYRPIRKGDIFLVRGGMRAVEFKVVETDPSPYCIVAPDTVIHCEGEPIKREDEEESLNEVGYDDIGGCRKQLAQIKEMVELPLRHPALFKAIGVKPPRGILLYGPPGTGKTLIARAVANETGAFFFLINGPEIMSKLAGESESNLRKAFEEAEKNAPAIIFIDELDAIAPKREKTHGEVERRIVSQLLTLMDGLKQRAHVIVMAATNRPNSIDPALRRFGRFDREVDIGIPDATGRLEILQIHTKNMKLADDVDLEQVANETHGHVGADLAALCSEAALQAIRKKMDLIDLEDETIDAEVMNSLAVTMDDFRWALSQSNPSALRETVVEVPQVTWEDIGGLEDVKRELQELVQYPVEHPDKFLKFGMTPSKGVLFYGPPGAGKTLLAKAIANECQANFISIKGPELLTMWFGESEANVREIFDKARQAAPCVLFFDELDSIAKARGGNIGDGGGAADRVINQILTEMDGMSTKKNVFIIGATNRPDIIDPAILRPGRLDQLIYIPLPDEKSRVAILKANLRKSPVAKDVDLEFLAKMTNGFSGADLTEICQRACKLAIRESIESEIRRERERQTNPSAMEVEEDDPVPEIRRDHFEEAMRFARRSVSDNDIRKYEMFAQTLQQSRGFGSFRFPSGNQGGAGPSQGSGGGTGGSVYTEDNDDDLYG

Regarding `CC(=O)OCC[N+](C)(C)C`, the half-inhibitory concentration (IC50) (usually the concentration needed to halve the response being measured) in assay [1] was > 35 µM (not active); in assay [3], > 35 µM (not active); at Galanin receptor type 3, 1.66 µM (active). Moreover, the values for the 50% effective concentration (EC50) (in [2]; in “cells”) were 0.0667 µM (active) and > 29.9 µM (inactive), respectively.
On to `COC(=O)c1ccc2nc(NC(=O)CCS(=O)(=O)c3ccccc3)sc2c1`, for which the concentration for half-maximal inhibition (IC50) in [4] is > 111 µM (not active); in assay [5], 39 µM (not active).
Take `CCOC(=O)/C(C#N)=C/c1ccc([N+](=O)[O-])cc1`: the IC50 in assay [6] and in assay [7] was > 50 µM (not active) each time.
For `CCCS(=O)(=O)N1CCC(C(=O)NCCCN(CC)c2cccc(C)c2)CC1`, the IC50 in assay [8] and in [9] was > 4.43 µM (active) each time.
Turning to `CCOc1ccc(N/N=C2/C(=O)Nn3c2nc(C)cc3=O)cc1`, the EC50 – broadly, the concentration that produces a half-maximal response – in assay [10] was 213 µM (active); in assay [11], 16.2 µM (active); in assay [12], > 100 µM (active); in [13] it was 0.535 µM (active); in assay [16], 9.37 µM (active). The IC50 in assay [14] is 24.7 µM (inactive); in assay [15], > 69.5 µM (inactive).
